{"source": "patent US20230265151A1", "about": "“GIP/GLP1 CO-AGONIST COMPOUNDS” (priority 2020, published 2023)", "key": {"[1]": {"biological_target": "T1, human GIP receptor (hGIPR) (Homo sapiens, UniProt P48546)", "T1 construct": "expressed in transfected cells; crude membranes", "T1 sequence (P48546 22-466)": "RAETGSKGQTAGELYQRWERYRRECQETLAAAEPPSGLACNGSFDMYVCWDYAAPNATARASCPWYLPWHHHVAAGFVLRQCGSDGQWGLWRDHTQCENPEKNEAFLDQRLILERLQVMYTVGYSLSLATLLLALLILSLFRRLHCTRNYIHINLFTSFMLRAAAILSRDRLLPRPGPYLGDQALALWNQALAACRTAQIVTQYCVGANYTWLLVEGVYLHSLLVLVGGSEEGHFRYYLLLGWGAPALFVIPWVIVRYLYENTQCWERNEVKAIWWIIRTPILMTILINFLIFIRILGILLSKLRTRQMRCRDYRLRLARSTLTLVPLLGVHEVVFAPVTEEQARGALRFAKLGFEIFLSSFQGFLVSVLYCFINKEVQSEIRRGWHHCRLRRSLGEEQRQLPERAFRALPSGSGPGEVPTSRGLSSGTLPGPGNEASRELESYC", "test": "[125I]-GIP binding, SPA with membranes of CHO cells expressing hGIPR", "details": "human GIPR; geometric mean (SEM, n); read-out: Binding Affinity Ki, nM (SEM, n) hGIPR"}, "[2]": {"biological_target": "T2, hGIPR (Homo sapiens, UniProt P48546)", "T2 construct": "expressed in transfected cells", "T2 sequence (P48546 22-466)": "T1 sequence (P48546 22-466)", "test": "Functional cAMP formation (HTRF) in HEK-293 clonal cells expressing hGIPR, 0.1% bovine casein, without or with 1.0% human serum albumin", "assay_type": "cell-based", "details": "for EC50: geometric mean, read-out: hGIPR EC50, nM (SEM, n); for Emax: read-out: hGIPR Emax, % ± SEM", "in_short": "(§1)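 Cells were stimulated with peptide for 30 min at 37° C, then intracellular cAMP was measured by competitive HTRF (665/620 nm ratio) and converted to nM using a cAMP standard curve. Relative EC50 and Emax came from four-parameter logistic fits of percent maximal response against peptide concentration.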"}, "[3]": {"biological_target": "T3, hGCGR (Homo sapiens, UniProt P47871)", "T3 construct": "expressed in transfected cells", "T3 sequence (P47871 26-477)": "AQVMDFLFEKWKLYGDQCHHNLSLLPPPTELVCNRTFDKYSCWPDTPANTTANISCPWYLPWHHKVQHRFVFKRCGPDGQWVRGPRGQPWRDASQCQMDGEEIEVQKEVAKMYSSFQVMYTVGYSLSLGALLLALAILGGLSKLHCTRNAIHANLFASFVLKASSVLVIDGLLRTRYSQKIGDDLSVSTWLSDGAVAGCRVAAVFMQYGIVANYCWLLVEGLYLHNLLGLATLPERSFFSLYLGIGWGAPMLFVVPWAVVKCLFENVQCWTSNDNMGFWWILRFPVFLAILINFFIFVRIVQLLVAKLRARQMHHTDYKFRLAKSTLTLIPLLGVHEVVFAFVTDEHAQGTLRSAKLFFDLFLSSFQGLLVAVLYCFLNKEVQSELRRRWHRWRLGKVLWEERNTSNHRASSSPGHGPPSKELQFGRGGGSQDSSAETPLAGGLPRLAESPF", "test": "Functional cAMP formation (HTRF) in HEK-293 clonal cells expressing hGCGR, 0.1% bovine casein, without or with 1.0% human serum albumin", "assay_type": "cell-based", "details": "read-out: hGCGR EC50, nM (SEM, n)", "in_short": "as §1"}, "[4]": {"biological_target": "hGLP-1R (Homo sapiens, UniProt P43220)", "sequence (P43220 24-463)": "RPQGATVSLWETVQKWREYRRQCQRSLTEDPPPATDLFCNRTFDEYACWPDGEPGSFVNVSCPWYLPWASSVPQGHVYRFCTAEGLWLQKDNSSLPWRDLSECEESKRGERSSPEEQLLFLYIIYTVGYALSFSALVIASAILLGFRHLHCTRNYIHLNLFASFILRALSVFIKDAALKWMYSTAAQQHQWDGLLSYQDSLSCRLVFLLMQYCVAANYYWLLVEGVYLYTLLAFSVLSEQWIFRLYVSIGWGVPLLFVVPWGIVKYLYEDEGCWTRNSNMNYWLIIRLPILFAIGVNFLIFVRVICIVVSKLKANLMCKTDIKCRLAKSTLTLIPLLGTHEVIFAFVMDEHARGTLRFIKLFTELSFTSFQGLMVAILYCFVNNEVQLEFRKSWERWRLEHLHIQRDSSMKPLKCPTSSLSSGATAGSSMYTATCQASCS", "test": "Functional cAMP formation (HTRF) in HEK-293 clonal cells expressing hGLP-1R, 0.1% bovine casein, without or with 1.0% human serum albumin", "assay_type": "cell-based", "parameters": "expressed in transfected cells", "details": "for EC50: geometric mean, read-out: hGLP-1R EC50, nM (SEM, n)", "in_short": "as §1"}, "[5]": {"details": "0.1% bovine casein and 1.0% human serum albumin, 37° C."}, "[6]": {"details": "HEK293, 0.1% bovine casein and 1.0% human serum albumin, 37° C., percent of maximal response to GIP(1-42)NH2"}, "[7]": {"details": "cAMP, incubated at 37° C., 0.1% bovine casein (no human serum albumin)"}, "[8]": {"details": "0.1% bovine casein and 1.0% human serum albumin, 37° C., geometric mean"}, "[9]": {"details": "cAMP, incubated at 37° C., 0.1% bovine casein (no human serum albumin), geometric mean"}, "[10]": {"details": "cAMP, 37° C., 0.1% bovine casein (no human serum albumin)"}}, "note": "Like-named read-outs stand apart in the source and are kept apart here.", "data": [{"smiles": "CCCCCCCCCCCCCCCC(=O)N[C@@H](CCC(=O)NCCOCCOCC(=O)NCCOCCOCC(=O)NCCCC[C@H](NC(=O)CNC(=O)CNC(=O)[C@H](CCCCNC(=O)COCCOCCNC(=O)COCCOCCNC(=O)CC[C@H](NC(=O)CCCCCCCCCCCCCCC)C(=O)O)NC(=O)[C@@H](NC(=O)[C@H](CC(C)C)NC(=O)[C@](C)(Cc1ccc(O)cc1)NC(=O)[C@@H](CCC(=O)O)NC(=O)[C@@H](NC(=O)[C@H](Cc1ccccc1)NC(=O)[C@H](CCC(=O)O)NC(=O)C(C)(C)NC(=O)[C@H](CCC(N)=O)NC(=O)[C@H](C)NC(=O)[C@@H](NC(=O)[C@H](CCCN)NC(=O)[C@H](CC(=O)O)NC(=O)[C@H](CC(C)C)NC(=O)[C@](C)(CC(C)C)NC(=O)[C@@H](NC(=O)[C@H](CO)NC(=O)[C@H](Cc1ccncc1)NC(=O)[C@H](CC(=O)O)NC(=O)[C@H](CO)NC(=O)[C@@H](NC(=O)[C@](C)(Cc1ccccc1F)NC(=O)[C@@H](NC(=O)CNC(=O)[C@H](CCC(=O)O)NC(=O)C(C)(C)NC(=O)[C@@H](N)Cc1ccc(O)cc1)[C@@H](C)O)[C@@H](C)O)[C@@H](C)CC)[C@@H](C)CC)[C@@H](C)CC)[C@@H](C)CC)C(=O)N[C@@H](CO)C(=O)N[C@@H](CO)C(=O)NCC(=O)N[C@@H](C)C(=O)N1CCC[C@H]1C(=O)N1CCC[C@H]1C(=O)N1CCC[C@H]1C(=O)N[C@@H](CO)C(N)=O)C(=O)O", "note": "[Example 26]", "values": [{"measurement": "Ki", "setting": "[1]", "result": 0.0863, "unit": "nM"}, {"measurement": "EC50", "setting": "[2]; [5]", "result": 1.2, "unit": "nM"}, {"measurement": "Emax", "setting": "[2]; [6]", "result": "95.4 ± 2.54", "unit": "%"}, {"measurement": "EC50", "setting": "[2]; [7]", "result": 0.0218, "unit": "nM"}, {"measurement": "EC50", "setting": "[3]; [8]", "result": "> 9950", "unit": "nM"}, {"measurement": "EC50", "setting": "[3]; [9]", "result": "> 9950", "unit": "nM"}, {"measurement": "EC50", "setting": "[4]; [5]", "result": 3.93, "unit": "nM"}]}, {"smiles": "CC[C@H](C)[C@H](NC(=O)[C@H](CC(C)C)NC(=O)[C@](C)(Cc1ccc(O)cc1)NC(=O)[C@@H](CCC(=O)O)NC(=O)[C@@H](NC(=O)[C@H](Cc1ccccc1)NC(=O)[C@H](CCC(=O)O)NC(=O)C(C)(C)NC(=O)[C@H](CCC(N)=O)NC(=O)[C@H](C)NC(=O)[C@H](CCCCNC(=O)COCCOCCNC(=O)COCCOCCNC(=O)CC[C@H](NC(=O)CCCCCCCCCCCCC(=O)O)C(=O)O)NC(=O)[C@H](CCCN)NC(=O)[C@H](CC(=O)O)NC(=O)[C@H](CC(C)C)NC(=O)[C@](C)(CC(C)C)NC(=O)[C@@H](NC(=O)[C@H](CO)NC(=O)[C@H](CCc1ccc(O)cc1)NC(=O)[C@H](CC(=O)O)NC(=O)[C@H](CO)NC(=O)[C@@H](NC(=O)[C@](C)(Cc1ccccc1F)NC(=O)[C@@H](NC(=O)CNC(=O)[C@H](CCC(=O)O)NC(=O)C(C)(C)NC(=O)[C@@H](N)Cc1ccc(O)cc1)[C@@H](C)O)[C@@H](C)O)[C@@H](C)CC)[C@@H](C)CC)C(=O)N[C@@H](CCC(=O)O)C(=O)NCC(=O)NCC(=O)N[C@@H](CCCCNC(=O)COCCOCCNC(=O)COCCOCCNC(=O)CC[C@H](NC(=O)CCCCCCCCCCCCC(=O)O)C(=O)O)C(=O)N[C@@H](CO)C(=O)N[C@@H](CO)C(=O)NCC(=O)N[C@@H](C)C(=O)N1CCC[C@H]1C(=O)N1CCC[C@H]1C(=O)N1CCC[C@H]1C(=O)N[C@@H](CO)C(N)=O", "note": "[Example 59]", "values": [{"measurement": "Ki", "setting": "[1]", "result": 0.171, "unit": "nM"}, {"measurement": "Emax", "setting": "[2]; [6]", "result": "90.3 ± 3.64", "unit": "%"}, {"measurement": "Emax", "setting": "[2]; HEK293, percent of maximal response to GIP(1-42)NH2, 37° C., 0.1% bovine casein, arithmetic mean", "result": "89.2 ± 4.62", "unit": "%"}, {"measurement": "EC50", "setting": "[2]; [7]", "result": 0.024, "unit": "nM"}, {"measurement": "EC50", "setting": "[3]; [8]", "result": "> 9950", "unit": "nM"}, {"measurement": "EC50", "setting": "[3]; [9]", "result": "> 9950", "unit": "nM"}, {"measurement": "EC50", "setting": "[4]; [7]", "result": 0.202, "unit": "nM"}]}, {"smiles": "CC[C@H](C)[C@H](NC(=O)[C@H](CC(C)C)NC(=O)[C@](C)(Cc1ccc(O)cc1)NC(=O)[C@@H](CCC(=O)O)NC(=O)[C@@H](NC(=O)[C@H](Cc1ccccc1)NC(=O)[C@H](CCC(=O)O)NC(=O)C(C)(C)NC(=O)[C@H](CCC(N)=O)NC(=O)[C@H](C)NC(=O)[C@H](CCCCNC(=O)[C@@H](N)CCCCNC(=O)[C@@H](N)CCCCNC(=O)CC[C@H](NC(=O)CCCCCCCCCCCCC(=O)O)C(=O)O)NC(=O)[C@H](CCCN)NC(=O)[C@H](CC(=O)O)NC(=O)[C@H](CC(C)C)NC(=O)[C@](C)(CC(C)C)NC(=O)[C@@H](NC(=O)[C@H](CO)NC(=O)[C@H](Cc1ccncc1)NC(=O)[C@H](CC(=O)O)NC(=O)[C@H](CO)NC(=O)[C@@H](NC(=O)[C@](C)(Cc1ccccc1F)NC(=O)[C@@H](NC(=O)CNC(=O)[C@H](CCC(=O)O)NC(=O)C(C)(C)NC(=O)[C@@H](N)Cc1ccc(O)cc1)[C@@H](C)O)[C@@H](C)O)[C@@H](C)CC)[C@@H](C)CC)C(=O)N[C@@H](CCC(=O)O)C(=O)NCC(=O)NCC(=O)N[C@@H](CCCCNC(=O)[C@@H](N)CCCCNC(=O)[C@@H](N)CCCCNC(=O)CC[C@H](NC(=O)CCCCCCCCCCCCC(=O)O)C(=O)O)C(=O)N[C@@H](CO)C(=O)N[C@@H](CO)C(=O)NCC(=O)N[C@@H](C)C(=O)N1CCC[C@H]1C(=O)N1CCC[C@H]1C(=O)N1CCC[C@H]1C(=O)N[C@@H](CO)C(N)=O", "note": "[Example 40]", "values": [{"measurement": "Ki", "setting": "[1]", "result": 0.163, "unit": "nM"}, {"measurement": "EC50", "setting": "[2]; [5]", "result": 0.301, "unit": "nM"}, {"measurement": "EC50", "setting": "[2]; [7]", "result": 0.0116, "unit": "nM"}, {"measurement": "EC50", "setting": "[3]; [8]", "result": "> 9950", "unit": "nM"}, {"measurement": "EC50", "setting": "[3]; [9]", "result": "> 9950", "unit": "nM"}, {"measurement": "EC50", "setting": "[4]; [5]", "result": 6.69, "unit": "nM"}, {"measurement": "EC50", "setting": "[4]; [7]", "result": 0.279, "unit": "nM"}]}, {"smiles": "CCCCCCCCCCCC(=O)N[C@@H](CCC(=O)NCCOCCOCC(=O)NCCOCCOCC(=O)NCCOCCOCC(=O)NCCCC[C@H](NC(=O)[C@H](CCCN)NC(=O)[C@H](CC(=O)O)NC(=O)[C@H](CC(C)C)NC(=O)[C@](C)(CC(C)C)NC(=O)[C@@H](NC(=O)C(C)(C)NC(=O)[C@H](CCCCNC(=O)COCCOCCNC(=O)COCCOCCNC(=O)COCCOCCNC(=O)CC[C@H](NC(=O)CCCCCCCCCCC)C(=O)O)NC(=O)[C@H](CC(=O)O)NC(=O)[C@H](CO)NC(=O)[C@@H](NC(=O)[C@](C)(Cc1ccccc1F)NC(=O)[C@@H](NC(=O)CNC(=O)[C@H](CCC(=O)O)NC(=O)C(C)(C)NC(=O)[C@@H](N)Cc1ccc(O)cc1)[C@@H](C)O)[C@@H](C)O)[C@@H](C)CC)C(=O)N[C@@H](C)C(=O)N[C@@H](CCC(N)=O)C(=O)NC(C)(C)C(=O)N[C@@H](CCC(=O)O)C(=O)N[C@@H](Cc1ccccc1)C(=O)N[C@H](C(=O)N[C@H](CCC(=O)O)C(=O)N[C@@](C)(Cc1ccc(O)cc1)C(=O)N[C@@H](CC(C)C)C(=O)N[C@H](C(=O)N[C@@H](CCC(=O)O)C(=O)NCC(=O)NCC(=O)N1CCC[C@H]1C(=O)N[C@@H](CO)C(=O)N[C@@H](CO)C(=O)NCC(=O)N[C@@H](C)C(=O)N1CCC[C@H]1C(=O)N1CCC[C@H]1C(=O)N1CCC[C@H]1C(=O)N[C@@H](CO)C(N)=O)[C@@H](C)CC)[C@@H](C)CC)C(=O)O", "note": "[Example 421]", "values": [{"measurement": "Ki", "setting": "[1]", "result": 0.0245, "unit": "nM"}, {"measurement": "Emax", "setting": "[2]; HEK293, cAMP, 37° C., 0.1% bovine casein and 1.0% human serum albumin, percent of maximal response to GIP(1-42)NH2", "result": 98, "unit": "%"}, {"measurement": "Emax", "setting": "[2]; HEK293, cAMP, 37° C., 0.1% bovine casein, percent of maximal response to GIP(1-42)NH2, arithmetic mean", "result": 100, "unit": "%"}, {"measurement": "EC50", "setting": "[2]; [10]", "result": 0.00618, "unit": "nM"}, {"measurement": "EC50", "setting": "[3]; cAMP, 37° C., 0.1% bovine casein (no human serum albumin), geometric mean", "result": "> 9950", "unit": "nM"}, {"measurement": "EC50", "setting": "[3]; cAMP, 37° C., 0.1% bovine casein and 1.0% human serum albumin, geometric mean (SEM, n)", "result": "> 9950", "unit": "nM"}, {"measurement": "Emax", "setting": "[4]; HEK293, cAMP, 37° C., 0.1% bovine casein and 1.0% human serum albumin, percent of maximal response to GLP-1(7-36)NH2, read-out: hGLP-1R Emax, % ± SEM", "result": 105, "unit": "%"}, {"measurement": "EC50", "setting": "[4]; [10]", "result": 0.057, "unit": "nM"}]}]}
